Values quoted from earlier work as cited in patent US20230310429A1, “FORMULATIONS FOR REDUCING HAIR LOSS AND/OR INCREASING HAIR REGROWTH” (TRIPLE HAIR INC., priority 2020, published 2023).
Like-named read-outs stand apart in the source and are kept apart here.

Experiments:
[1] = not given; remark: listed apart in the source
[2] = system: prostaglandin endoperoxide synthase-1 (PGHS-1); details: oxygen consumption in PGE2 production; Michelet et al. 1997
[3] = system: regrowth of the hair; details: topical
[4] = not given; remark: listed apart in the source

| solubility (in words) (0.1N HCl) | solubility (in words) (0.1N NaOH) | solubility (in words) (DMSO) | solubility (in words) (chloroform) | solubility (in words) (ethanol) | solubility (in words) (methanol) | solubility (in words) (n-propanol) | solubility (in words) (polyethylene glycol 400) | solubility (in words) (propylene glycol) | solubility (in words) (water) | solubility (in words) (acetone) | solubility (in words) (acetonitrile) | solubility (in words) (ethyl acetate) | solubility (in words) (isopropanol) | solubility (in words) (octanol) | SMILES | other adverse effects ([1]; in vivo) | side effect on periocular hair and eyelashes ([1]; ophthalmic use) | activation of purified PGHS-1 [2] | effective in promoting regrowth of the hair [3] | pKa [4] |
| --- | --- | --- | --- | --- | --- | --- | --- | --- | --- | --- | --- | --- | --- | --- | --- | --- | --- | --- | --- | --- |
| very slightly soluble | very slightly soluble | freely soluble | freely soluble | freely soluble | freely soluble | freely soluble | sparingly soluble | sparingly soluble | not soluble | – | – | – | – | – | CC(C)(C)NC(=O)[C@H]1CC[C@H]2[C@@H]3CC[C@H]4NC(=O)C=C[C@]4(C)[C@H]3CC[C@]12C [Finasteride, ((5α,17β)-N-(1,1-Dimethylethyl)-3-oxo-4-azaandrost-1-ene-17-carboxamide)] | – | – | – | – | – |
| – | – | – | – | freely soluble | freely soluble | – | – | – | practically insoluble | freely soluble | very soluble | freely soluble | freely soluble | freely soluble | CC(C)OC(=O)CCC/C=C\C[C@@H]1[C@@H](CC[C@@H](O)CCc2ccccc2)[C@H](O)C[C@@H]1O [Latanoprost] | erythema, folliculitis, sensation of burning and erysipelas | augmentation of periocular hirsuteness | – | – | – |
| – | – | – | – | – | – | – | – | – | – | – | – | – | – | – | Nc1cc(N2CCCCC2)nc(N)[n+]1[O-] [Minoxidil, (6-(1-pipedidinyl)-2,4-pyrimidinediamine 3-oxide)] | – | – | potent activator | less than 40% | 4.61 |
